assay: Thermostability test of crystal forms; type: physicochemical; details: solid sample placed at 80° C. for 1 week; change of crystal form detected
Method: 3. Thermostability Test The samples of crystal form D, crystal form H and crystal form G were each placed for 1 week at 80° C., and subsequently the changes of the crystal form were detected.

| Compound | The crystal form after test |
| --- | --- |
| CC(C)=CCC[C@](C)(O[C@@H]1O[C@H](CO)[C@@H](O)[C@H](O)[C@H]1O)[C@H]1CC[C@]2(C)[C@@H]1[C@H](O)C[C@@H]1[C@@]3(C)CC[C@H](O)C(C)(C)[C@@H]3CC[C@]12C [crystal form D, ginsenoside C-K] | no change was observed |
| CC(C)=CCC[C@](C)(O[C@@H]1O[C@H](CO)[C@@H](O)[C@H](O)[C@H]1O)[C@H]1CC[C@]2(C)[C@@H]1[C@H](O)C[C@@H]1[C@@]3(C)CC[C@H](O)C(C)(C)[C@@H]3CC[C@]12C [crystal form G, ginsenoside C-K] | changed to crystal form D |
| CC(C)=CCC[C@](C)(O[C@@H]1O[C@H](CO)[C@@H](O)[C@H](O)[C@H]1O)[C@H]1CC[C@]2(C)[C@@H]1[C@H](O)C[C@@H]1[C@@]3(C)CC[C@H](O)C(C)(C)[C@@H]3CC[C@]12C [crystal form H, ginsenoside C-K] | no change was observed |
